The target of this test is C-Raf FL (full length CRAF with Y340E and Y341E activating mutations, co-expressed with h14-3-3 zeta) (Homo sapiens (Human), UniProt P04049, Y340E/Y341E). Briefly: In vitro Raf activity determination, AlphaScreen p-MEK readout, c-Raf (C-Raf FL). It counts as biochemical. Conditions: c-Raf approximately 4 nM, ATP 1 μM, pre-incubation 60 minutes, reaction 1 hour. The essentials: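 Phosphorylation of kinase-dead biotinylated MEK1 (~10 nM) by C-Raf FL (~4 nM) read by AlphaScreen luminescence with anti-phospho-MEK1/2 after EDTA stop. ATP was 1 μM, with a 1 h reaction at room temperature. Compounds were pre-incubated with enzyme and substrate for 60 min in Tris/MgCl2 buffer, pH 7.5.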
C-Raf FL (full length CRAF with Y340E and Y341E activating mutations, co-expressed with h14-3-3 zeta), sequence (P04049 whole entry Y340E/Y341E): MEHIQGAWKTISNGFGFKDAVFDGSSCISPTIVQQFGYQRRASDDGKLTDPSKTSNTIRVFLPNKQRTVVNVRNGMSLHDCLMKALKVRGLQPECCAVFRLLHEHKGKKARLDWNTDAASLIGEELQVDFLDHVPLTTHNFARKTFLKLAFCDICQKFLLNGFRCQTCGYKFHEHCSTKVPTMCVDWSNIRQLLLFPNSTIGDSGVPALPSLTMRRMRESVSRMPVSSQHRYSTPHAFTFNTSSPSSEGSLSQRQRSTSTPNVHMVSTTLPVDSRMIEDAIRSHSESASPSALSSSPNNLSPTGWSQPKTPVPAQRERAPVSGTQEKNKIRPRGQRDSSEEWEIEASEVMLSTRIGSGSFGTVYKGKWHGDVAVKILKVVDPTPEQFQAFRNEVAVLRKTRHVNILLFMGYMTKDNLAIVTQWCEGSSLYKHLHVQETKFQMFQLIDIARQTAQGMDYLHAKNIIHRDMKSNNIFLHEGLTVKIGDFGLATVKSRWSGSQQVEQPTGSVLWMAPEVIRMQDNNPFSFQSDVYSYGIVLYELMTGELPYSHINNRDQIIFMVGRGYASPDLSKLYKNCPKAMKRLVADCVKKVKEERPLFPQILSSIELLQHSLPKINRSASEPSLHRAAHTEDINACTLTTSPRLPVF
C-Raf FL (full length CRAF with Y340E and Y341E activating mutations, co-expressed with h14-3-3 zeta), sequence (P63104 whole entry partner): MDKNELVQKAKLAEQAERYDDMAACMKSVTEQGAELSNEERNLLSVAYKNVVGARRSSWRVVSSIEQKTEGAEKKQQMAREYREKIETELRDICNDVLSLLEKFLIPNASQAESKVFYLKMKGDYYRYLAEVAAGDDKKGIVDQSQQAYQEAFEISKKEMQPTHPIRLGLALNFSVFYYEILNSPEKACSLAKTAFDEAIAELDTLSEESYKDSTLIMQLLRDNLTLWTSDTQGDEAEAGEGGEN

Each structure is given as a SMILES string.

For the compound `Cc1ncc(NC(=O)c2ccnc(C(C)(C)F)c2)cc1-c1ccc2c(c1)N1CCOCC[C@H]1C[C@@H]2O` [Example 445, 2-(2-fluoropropan-2-yl)-N-(5-((5aS,7S)-7-hydroxy-1,2,5,5a,6,7-hexahydro-4H-[1,4]oxazepino [4,5-a]quinolin-10-yl)-6-methylpyridin-3-yl)isonicotinamide], 0.7 nM corresponded to half-maximal inhibition (IC50).

For `Cc1ccc(NC(=O)c2ccnc(C(F)(F)F)c2F)cc1-c1ccc2c(c1)N1CCOC[C@H]1[C@@](F)(CO)C2` [Example 395, 3-fluoro-N-(3-((4aS,5R)-5-fluoro-5-(hydroxymethyl)-1,2,4,4a,5,6-hexahydro-[1,4]oxazino[4,3-a]quinolin-9-yl)-4-methylphenyl)-2-(trifluoromethyl)isonicotinamide], the midpoint of inhibition, the IC50, lay at 0.2 nM.

Compound `CCN1C[C@@H]2CCOCCN2c2cc(-c3cc(NC(=O)c4cccc(C(F)(F)F)c4)cnc3C)cnc2C1=O` [Example 506, (S)-N-(5-(7-ethyl-8-oxo-1,2,4,5,5a,6,7,8-octahydropyrido[2′, 3′:6,7][1,4]diazepino [1,2-d][1,4]oxazepin-11-yl)-6-methylpyridin-3-yl)-3-(trifluorometh-yl)benzamide] showed an IC50 of 80.3 nM.

In turn, `CCN1C(=O)C2CCOCCC2c2cc(-c3cc(NC(=O)c4ccnc(C(F)(F)F)c4)ccc3C)cnc21` (stereo not drawn) [Example 249, N-(3-((5a, 11b- trans)-7-ethyl-6-oxo-1,2,4,5,5a,6,7,11boctahydrooxepino [4,5-c][1,8]naphthyridin-4,5-10-yl)-4-methylphenyl)-2-(trifluoromethyl) isonicotinamide] came in with an IC50 of 0.1 nM.

Compound `Cc1ncc(NC(=O)c2cccc(C(F)(F)F)c2)cc1-c1ccc2c(c1)N1CCOC[C@H]1[C@](CO)(CF)C2` [Example 409, N-(5-((4aR,5R)-5-(fluoromethyl)-5-(hydroxymethyl)-1,2,4,4a,5,6-hexahydro-[1,4]oxazino[4,3-a]quinolin-9-yl)-6-methylpyridin-3-yl)-3-(trifluoromethyl)benzamide] returned an IC50 of 0.4 nM.

With `Cc1ccc(NC(=O)c2ccnc(C(C)(F)F)c2)cc1-c1ccc2c(c1)N1CCOC[C@@H]1C(CO)(CO)C2` [Example 53, (S)—N-(3-(5,5-bis(hydroxymethyl)-1,2,4,4a,5,6-hexahydro-[1,4]oxazino[4,3-a]quinolin-9-yl)-4-methylphenyl)-2-(1,1-difluoroethyl)isonicotinamide], the IC50 was 0.0062 nM.

For the compound `Cc1ncc(NC(=O)c2cccc(C(C)(F)F)c2)cc1-c1ccc2c(c1)N1CCOC[C@H]1[C@](F)(CO)C2` [Example 367, 3-(1,1-difluoroethyl)-N-(5-((4aS,5S)-5-fluoro-5-(hydroxymethyl)-1,2,4,4a,5,6-hexahydro-[1,4]oxazino[4,3-a]quinolin-9-yl)-6-methylpyridin-3-yl)benzamide], the IC50 amounted to 1 nM.

`Cc1ncc(NC(=O)c2cccc(C(F)(F)F)c2)cc1-c1cnc2c(c1)N1CCOC[C@H]1C[C@H]2OCCO` [Example 514, N-(5-((4aR,6R)-6-(2-hydroxyethoxy)-1,2,4,4a,5,6-hexahydro-[1,4]oxazino[4,3-a][1,5]naphthyridin-9-yl)-6-methylpyridin-3-yl)-3-(trifluorometh-yl)benzamide] showed an IC50 of 0.4 nM.

Compound `Cc1ccc(NC(=O)c2ccnc(C(F)(F)F)c2F)cc1-c1ccc2c(c1)N1CCOC[C@H]1[C@](F)(CO)C2` [Example 385, 3-fluoro-N-(3-((4aS,5S)-5-fluoro-5-(hydroxymethyl)-1,2,4,4a,5,6-hexahydro-[1,4]oxazino[4,3-a]quinolin-9-yl)-4-methylphenyl)-2-(trifluoromethyl)isonicotinamide] yielded a half-maximal inhibitory concentration (IC50) of 0.6 nM.

The compound `Cc1ccc(NC(=O)c2ccnc(C(C)(F)F)c2)cc1-c1ccc2c(c1)N1CCOC[C@H]1[C@@](C)(N)C2` (racemic) [Example 93, (rac)-(anti)-N-(3-(5-amino-5-methyl-1,2,4,4a,5,6-hexahydro-[1,4]oxazino[4,3-a]quinolin-9-yl)-4-methylphenyl)-2-(1,1-difluoroethyl)isonicotinamide] gave an IC50 of 0.025 nM.

As to `Cc1ccc(NC(=O)c2ccnc(C(C)(F)F)c2)cc1-c1ccc2c(c1)N1CCOC[C@@H]1[C@@](CO)(CF)C2` [Example 407, 2-(1,1-difluoroethyl)-N-(3-((4aS,5S)-5-(fluoromethyl)-5-(hydroxymethyl)-1,2,4,4a,5,6-hexahydro-[1,4]oxazino[4,3-a]quinolin-9-yl)-4-methylphenyl)isonicotinamide], the midpoint of inhibition, the IC50, lay at 0.1 nM.

For `Cc1ccc(NC(=O)c2ccnc(C(F)(F)F)c2)cc1-c1cnc2c(c1)N1CCOC[C@@H]1[C@H](CO)C2` [Example 494, N-(3-((4aS,5R)-5-(hydroxymethyl)-1,2,4,4a,5,6-hexahydro-[1,4]oxazino[4,3-a][1,5]naphthyridin-9-yl)-4-methyphenyl)-2-(trifluoromethyl)iso-nicotinamide], half-maximal inhibition (IC50) was put at 0.1 nM.

For the compound `Cc1ccc(NC(=O)c2cncc(C(F)(F)F)c2)cc1-c1cc2c(cc1F)C[C@@](F)(CO)[C@H]1COCCN21` [Example 489, N-(3-((4aR,5S)-5,8-difluoro-5-(hydroxymethyl)-1,2,4,4a,5,6-hexahydro-[1,4]oxazino[4,3-a]quinolin-9-yl)-4-methylphenyl)-5-(trifluoromethyl) nicotinamide], the 50% inhibitory concentration (IC50) came out at 0.4 nM.

For `CCN1C(=O)C2COCC[C@]2(C)c2cc(-c3cc(NC(=O)c4cncc(C(F)(F)F)c4)ccc3C)cnc21` (stereo in doubt) [Example 345, N-(3-((4a,10b-trans)-6-ethyl-10b-methyl-5-oxo-1,4,4a,5,6,10b-hexahydro-2H-pyrano[3,4-c][1,8]naphthyridin-9-yl)-4-methylphenyl)-5-(trifluoromethyl)nicotinamide], the IC50 came out at 0.8 nM.

The compound `Cc1ccc(NC(=O)c2ccnc(C(C)(F)F)c2)cc1-c1cc2n(c(=O)c1)CCC1COCCN21` (stereo not shown) [Example 95] had a concentration for half-maximal inhibition (IC50) of 0.03 nM.

On to `Cc1ccc(NC(=O)c2ccnc(C(C)(F)F)c2)cc1-c1ccc2c(c1)N1CCOC[C@@H]1[C@](C)(C#N)C2` [Example 374, N-(3-((4aS,5R)-5-cyano-5-methyl-1,2,4,4a,5,6-hexahydro-[1,4]oxazino[4,3-a]quinolin-9-yl)-4-methylphenyl)-2-(1,1-difluoroethyl)isonicotinamide], for which it took 0.2 nM to reach half-maximal inhibition (IC50).

The compound `Cc1ccc(NC(=O)c2ccnc(C(C)(C)C#N)c2)cc1-c1ccc2c(c1)N1CCOC[C@@H]1[C@](F)(CO)C2` [Example 401, 2-(2-cyanopropan-2-yl)-N-(3-((4aR,5S)-5-fluoro-5-(hydroxymethyl)-1,2,4,4a,5,6-hexahydro-[1,4]oxazino[4,3-a]quinolin-9-yl)-4-methylphenyl)isonicotinamide] registered a half-inhibitory concentration (IC50) of 0.3 nM.

In the case of `Cc1ccc(NC(=O)c2ccnc(C(C)(C)F)c2)cc1-c1ccc2c(c1)N1CCOCC1CC2O` (racemic) [Example 7, (rac)-2-(2-fluoropropan-2-yl)-N-(3-(6-hydroxy-1,2,4,4a,5,6-hexahydro-[1,4]oxazino[4,3-a]quinolin-9-yl)-4-methylphenyl)isonicotinamide], half-maximal inhibition (IC50) was put at 0.033 nM.

In turn, `CCN1C(=O)C2COCCN2c2cc(-c3cc(NC(=O)c4ccnc(C(F)(F)F)c4)ccc3C)nnc21` (racemic) [Example 132, rac-N-(3-(5-Ethyl-6-oxo-5,6,6a,7,9,10-hexahydropyridazino[3′,4′:5,6]pyrazino[2,1-c][1,4]oxazin-2-yl)-4-methylphenyl)-2-(trifluoromethyl)isonicotinamide] came in with an IC50 of 0.14 nM.

With `Cc1ccc(NC(=O)c2ccnc(C(C)(F)F)c2)cc1-c1cnc2c(c1)N1CCOC[C@H]1C[C@@]2(C)O` (racemic) [Example 41, (rac)-(trans)-2-(1,1-difluoroethyl)-N-(3-(6-hydroxy-6-methyl-1,2,4,4a,5,6-hexahydro-[1,4]oxazino[4,3-a][1,5]naphthyridin-9-yl)-4-methylphenyl)isonicotinamide], half-maximal inhibition (IC50) was put at 0.0099 nM.

`Cc1ccc(NC(=O)c2ccnc(C(C)(C)F)c2)cc1-c1cnc2c(c1)N1CCOC[C@H]1C[C@H]2OCCO` [Example 511, 2-(2-fluoropropan-2-yl)-N-(3-((4aR,6R)-6-(2-hydroxyethoxy)-1,2,4,4a,5,6-hexahydro-[1,4]oxazino[4,3-a][1,5]naphthyridin-9-yl)-4-methylphenyl)iso-nicotinamide] had an IC50 of 0.2 nM.

With `Cc1ccc(NC(=O)c2ccnc(C(C)(F)F)c2)cc1-c1cc2c(nn1)OC(C)(C)C1COCCN21` (racemic) [Example 136, rac-2-(1,1-Difluoroethyl)-N-(3-(6,6-dimethyl-6a,7,9,10-tetrahydro-6H-[1,4]oxazino[4,3-d]pyridazino[3,4-b][1,4]oxazin-2-yl)-4-methylphenyl)isonicotinamide], the IC50 came to 0.018 nM.

Compound `Cc1ccc(NC(=O)c2ccnc(C(C)(F)F)c2)cc1-c1cc(F)c2c(c1)N1CCOC[C@H]1[C@@](F)(CO)C2` [Example 430, N-(3-((4aS,5R)-5,7-difluoro-5-(hydroxymethyl)-1,2,4,4a,5,6-hexahydro-[1,4]oxazino[4,3-a]quinolin-9-yl)-4-methylphenyl)-2-(1,1-difluoroethyl)isonicotinamide] yielded an IC50 of 0.6 nM.

Regarding `CCN1C(=O)CC2CCOCCN2c2cc(-c3cc(NC(=O)c4ccnc(C(F)(F)F)c4)ccc3C)cnc21` (stereo not shown) [Example 316, N-(3-(8-ethyl-7-oxo-1,2,4,5,5a,6,7,8-octahydropyrido[3′, 2′:2,3][1,4]diazepino [1,7-d][1,4]oxazepin-11-yl)-4-methylphenyl)-2-(trifluoromethyl) isonicotinamide], half-maximal inhibition (IC50) was put at 0.8 nM.

Take `Cc1ccc(NC(=O)c2ccnc(C(F)(F)F)c2)cc1-c1ccc2c(c1)N1CCOC[C@@H]1C[C@@H]2O` [Example 5, N-(3-((4aS,6S)-6-hydroxy-1,2,4,4a,5,6-hexahydro-[1,4]oxazino[4,3-a]quinolin-9-yl)-4-methylphenyl)-2-(trifluoromethyl)isonicotinamide]: the midpoint of inhibition, the IC50, lay at 0.036 nM.
